From patent US9233957B2, “5-carbamoyl-adamantan-2-yl amide derivatives, pharmaceutically acceptable salts thereof and preparation process thereof” (SK BIOPHARMACEUTICALS CO., LTD., priority 2011, dated 2016) come the findings set out here.

Each structure is given as a SMILES string.

One assay has as its target T1, Mouse 11b-HSD1 (Mus musculus, UniProt P50172).
T1 construct: expressed in transfected cells
The experiment in a line: Inhibition of cortisone-to-cortisol conversion in CHO-K1 cells over-expressing mouse 11b-HSD1 (HTRF cortisol assay). Format: cell-based. Conditions: CHO-K1 cells over-expressing mouse 11b-HSD1, 160 nM cortisone, 3 hours, 37° C. From the text: (§1) cDNA (human: Accession No. U12978.2; mouse: Accession No. NM_008288.2) coding the full-length amino acid sequence of 11β-HSD1 in a human and a mouse was incorporated into pMSCVpuro (from Clontech. Co. Ltd.), a vector of expressing a mammalian cell for the production of a retrovirus, and the resulting product was introduced into a GP2-293 cell (from Clontech Co. Ltd.), a retrovirus packing cell line together with pVSV-G vector (from Clontech Co. Ltd.) by using a Lipotamine plus reagent (from Invitrogen Co. Ltd.) in accordance with the method set forth in the appendix (by using HTRF cortisol assay kit from Cisbio assays Co., Ltd., catalog No. 62CO2PEB) and stabilized for 48 hours. Thereafter, viruses being obtained from those cells were used to infect CHO-K1 cell (from Korean Cell Line Bank, KCLB No. 10061) and in 24 hours, the cells were treated with 10 μg/ml pumycin (from Sigma Co. Ltd.) for two weeks to produce a stabilized cell system wherein each 11β-HSD1 in humans or in mice was over-expressed. When the cells being maintained, 5 μg/ml of puromycin was put into the medium and used (RPMI (Gibco), 37° C.). • Reference material: The EMBO Journal (2008) 27, 642-653
(§2) The obtained cells with 11b-HSD1 in a human and a mouse being over-expressed were sub-cultured in a 96-well plate with a cell number being 3×10^4 cells per well and stabilized for 24 hours [RPMI (Gibco), at 37° C., as being used in 5 days after thawing]. After a medium as diluted with DMSO including 160 nM of cortisone (from Sigma Co. Ltd.) and a test compound at a different concentration was put into each well in an amount of 200 ul, the well was cultured in a cell cultivator at 37° C. for 3 hours. 10 ul of the cultured solution was put into a 384 well plate and the amount of cortisol as generated was measured using a cortisol kit (from Cisbio international Co. Ltd, HTRF assay) in accordance with the method set forth in the appended manual.
(§3) As a control group, 160 nM of cortisone and 1% of DMSO were put into a corresponding well. The ground value was obtained from a well including only 160 nM of cortisone and 1% of DMSO without cells just like the control group. The calculation for a % inhibition level was made following the manual as appended. • Reference material: The Journal of Steroid Biochemistry and Molecular Biology, Volume 104, Issues 3-5, May 2007, Pages 123-129 • Bioorganic & Medicinal Chemistry Letters Volume 19, Issue 10, 15 May 2009, Pages 2674-2678
(§4) Like the analyzing method as stated above, the efficacy of inhibiting 11b-HSD1 was calculated as IC50 and the results are shown in Table 1: […]

The next assay has as its target T2, Human 11b-HSD1 (Homo sapiens, UniProt P28845).
T2 construct: expressed in transfected cells
The experiment in a line: Inhibition of cortisone-to-cortisol conversion in CHO-K1 cells over-expressing human 11b-HSD1 (HTRF cortisol assay). Format: cell-based. Conditions: CHO-K1 cells over-expressing human 11b-HSD1, 160 nM cortisone, 3 hours, 37° C.
From the text: as §1, §2, §3, §4
For orientation: Time-resolved FRET reads energy transfer from a long-lived donor to a nearby acceptor.

T2 sequence (P28845 whole entry): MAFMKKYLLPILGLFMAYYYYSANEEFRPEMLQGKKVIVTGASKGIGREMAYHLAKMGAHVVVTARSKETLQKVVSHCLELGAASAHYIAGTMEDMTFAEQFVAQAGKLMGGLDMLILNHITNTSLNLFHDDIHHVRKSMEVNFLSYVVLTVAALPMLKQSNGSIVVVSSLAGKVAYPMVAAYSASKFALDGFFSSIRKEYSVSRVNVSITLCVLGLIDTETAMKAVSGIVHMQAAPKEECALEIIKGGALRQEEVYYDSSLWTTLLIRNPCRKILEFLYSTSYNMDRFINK
T1 sequence (P50172 whole entry): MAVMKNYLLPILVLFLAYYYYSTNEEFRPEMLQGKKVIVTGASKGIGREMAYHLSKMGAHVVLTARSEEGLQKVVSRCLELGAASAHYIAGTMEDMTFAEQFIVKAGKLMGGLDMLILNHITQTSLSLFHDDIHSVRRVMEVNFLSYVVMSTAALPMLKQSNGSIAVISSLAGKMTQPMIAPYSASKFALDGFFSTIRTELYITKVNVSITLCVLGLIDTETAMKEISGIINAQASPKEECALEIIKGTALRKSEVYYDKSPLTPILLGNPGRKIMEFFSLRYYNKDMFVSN

Broadly, the IC50 is the point on the concentration scale where inhibition reaches its midpoint. Low values mean inhibition by little substance, high ones a need for much substance. Consider `NC(=O)[C@]12CC3CC(C1)[C@@H](NC(=O)c1ccc(-c4ccc([N+](=O)[O-])cc4)o1)C(C3)C2` [Example 3, N-(5-carbamoyl-2-adamantyl)-5-(4-nitrophenyl)furan-2-carboxamide], for which the IC50 is more than 500 nM against Mouse 11b-HSD1 and less than 100 nM against Human 11b-HSD1.

In the case of `Cc1ccc(-c2ccc(C(=O)N[C@H]3C4CC5CC3C[C@](C(N)=O)(C5)C4)o2)cc1` [Example 4, N-(5-carbamoyl-2-adamantyl)-5-(4-methylphenyl)furan-2-carboxamide], the IC50 against Mouse 11b-HSD1 is 100 to 500 nM; on Human 11b-HSD1 it was less than 100 nM.

`Cc1cccc(-c2cc(C(=O)N[C@H]3C4CC5CC3C[C@](C(N)=O)(C5)C4)no2)c1` [Example 6, N-(5-carbamoyl-2-adamantyl)-5-(3-methylphenyl)-1,2-oxazole-3-carboxamide]: the 50% inhibitory concentration (IC50) at Mouse 11b-HSD1 and against Human 11b-HSD1 was more than 500 nM each time.

With `COc1ccccc1-c1cc(C(=O)N[C@H]2C3CC4CC2C[C@](C(N)=O)(C4)C3)no1` [Example 7, N-(5-carbamoyl-2-adamantyl)-5-(2-methoxyphenyl)-1,2-oxazole-3-carboxamide], the half-maximal inhibitory concentration (IC50) on Mouse 11b-HSD1 and on Human 11b-HSD1 was more than 500 nM in each case.

Take `Cc1ccccc1-c1cc(C(=O)N[C@H]2C3CC4CC2C[C@](C(N)=O)(C4)C3)no1` [Example 8, N-(5-carbamoyl-2-adamantyl)-5-(2-methylphenyl)-1,2-oxazole-3-carboxamide]: the half-inhibitory concentration (IC50) at Mouse 11b-HSD1 is more than 500 nM; at Human 11b-HSD1, 100 to 500 nM.

On to `NC(=O)[C@]12CC3CC(C1)[C@@H](NC(=O)c1cc(-c4cccc(F)c4)on1)C(C3)C2` [Example 12, N-(5-carbamoyl-2-adamantyl)-5-(3-fluorophenyl)-1,2-oxazole-3-carboxamide], for which the IC50 at Mouse 11b-HSD1 and against Human 11b-HSD1 was more than 500 nM throughout.

As to `NC(=O)[C@]12CC3CC(C1)[C@@H](NC(=O)c1cc(-c4ccc(Cl)cc4)on1)C(C3)C2` [Example 13, N-(5-carbamoyl-2-adamantyl)-5-(4-chlorophenyl)-1,2-oxazole-3-carboxamide], the half-inhibitory concentration (IC50) against Mouse 11b-HSD1 was more than 500 nM; on Human 11b-HSD1 it was 100 to 500 nM.

In the case of `Cc1cccc(C(=O)N[C@H]2C3CC4CC2C[C@](C(N)=O)(C4)C3)n1` [Example 15, N-(5-carbamoyl-2-adamantyl)-6-methylpyridine-2-carboxamide], the IC50 on Mouse 11b-HSD1 was 100 to 500 nM; at Human 11b-HSD1, less than 100 nM.

For the molecule `NC(=O)[C@]12CC3CC(C1)[C@@H](NC(=O)c1ccccn1)C(C3)C2` [Example 16, N-(5-carbamoyl-2-adamantyl)pyridine-2-carboxamide], the IC50 against Mouse 11b-HSD1 and on Human 11b-HSD1 was more than 500 nM each time.

As for `Cn1cccc1C(=O)N[C@H]1C2CC3CC1C[C@](C(N)=O)(C3)C2` [Example 17, N-(5-carbamoyl-2-adamantyl)-1-methylpyrrole-2-carboxamide], the half-inhibitory concentration (IC50) against Mouse 11b-HSD1 and against Human 11b-HSD1 was more than 500 nM throughout.

With `NC(=O)[C@]12CC3CC(C1)[C@@H](NC(=O)c1ccc(-c4cccs4)s1)C(C3)C2` [Example 21, N-(5-carbamoyl-2-adamantyl)-5-thiophen-2-yl-thiophene-2-carboxamide], the IC50 at Mouse 11b-HSD1 and against Human 11b-HSD1 was less than 100 nM each time.

With `NC(=O)[C@]12CC3CC(C1)[C@@H](NC(=O)c1cccs1)C(C3)C2` [Example 22, N-(5-carbamoyl-2-adamantyl)thiophene-2-carboxamide], the IC50 against Mouse 11b-HSD1 is more than 500 nM; against Human 11b-HSD1, 100 to 500 nM.

`Cc1csc(C(=O)N[C@H]2C3CC4CC2C[C@](C(N)=O)(C4)C3)c1` [Example 23, N-(5-carbamoyl-2-adamantyl)-4-methylthiophene-2-carboxamide]: the 50% inhibitory concentration (IC50) against Mouse 11b-HSD1 and at Human 11b-HSD1 was 100 to 500 nM in each case.

With `Cc1ccc(C(=O)N[C@H]2C3CC4CC2C[C@](C(N)=O)(C4)C3)s1` [Example 24, N-(5-carbamoyl-2-adamantyl)-5-methylthiophene-2-carboxamide], the IC50 is 100 to 500 nM against Mouse 11b-HSD1 and less than 100 nM at Human 11b-HSD1.

As to `NC(=O)[C@]12CC3CC(C1)[C@@H](NC(=O)c1ccc(-c4ccc(F)cc4)o1)C(C3)C2` [Example 25, N-(5-carbamoyl-2-adamantyl)-5-(4-fluorophenyl)furan-2-carboxamide], the 50% inhibitory concentration (IC50) against Mouse 11b-HSD1 and at Human 11b-HSD1 was less than 100 nM throughout.

As to `COc1ccc(-c2ccc(C(=O)N[C@H]3C4CC5CC3C[C@](C(N)=O)(C5)C4)o2)cc1` [Example 28, N-(5-carbamoyl-2-adamantyl)-5-(4-methoxyphenyl)furan-2-carboxamide], the 50% inhibitory concentration (IC50) is 100 to 500 nM on Mouse 11b-HSD1 and less than 100 nM against Human 11b-HSD1.

Regarding `NC(=O)[C@]12CC3CC(C1)[C@@H](NC(=O)c1ccc(-c4ccc(F)c(F)c4)o1)C(C3)C2` [Example 29, N-(5-carbamoyl-2-adamantyl)-5-(3,4-difluorophenyl)furan-2-carboxamide], the values for the IC50 against Mouse 11b-HSD1 and against Human 11b-HSD1 were 100 to 500 nM and less than 100 nM, respectively.

Consider `NC(=O)[C@]12CC3CC(C1)[C@@H](NC(=O)c1ccc(-c4ccc(Cl)c(Cl)c4)o1)C(C3)C2` [Example 31, N-(5-carbamoyl-2-adamantyl)-5-(3,4-dichlorophenyl)furan-2-carboxamide], for which the values for the 50% inhibitory concentration (IC50) at Mouse 11b-HSD1 and against Human 11b-HSD1 were 100 to 500 nM and less than 100 nM, respectively.

For `NC(=O)[C@]12CC3CC(C1)[C@@H](NC(=O)c1ccc(-c4cc(Cl)cc(Cl)c4)o1)C(C3)C2` [Example 32, N-(5-carbamoyl-2-adamantyl)-5-(3,5-dichlorophenyl)furan-2-carboxamide], the half-inhibitory concentration (IC50) was 100 to 500 nM on Mouse 11b-HSD1 and less than 100 nM against Human 11b-HSD1.

Regarding `Cn1c(C(=O)N[C@H]2C3CC4CC2C[C@](C(N)=O)(C4)C3)ccc1-c1cccc(Cl)c1` [Example 33, N-(5-carbamoyl-2-adamantyl)-5-(3-chlorophenyl)-1-methylpyrrole-2-carboxamide], the IC50 at Mouse 11b-HSD1 and on Human 11b-HSD1 was less than 100 nM throughout.

Turning to `Cn1c(C(=O)N[C@H]2C3CC4CC2C[C@](C(N)=O)(C4)C3)ccc1-c1ccc(Cl)cc1` [Example 35, N-(5-carbamoyl-2-adamantyl)-5-(4-chlorophenyl)-1-methylpyrrole-2-carboxamide], the IC50 against Mouse 11b-HSD1 is 100 to 500 nM; on Human 11b-HSD1, less than 100 nM.

On to `Cn1c(C(=O)N[C@H]2C3CC4CC2C[C@](C(N)=O)(C4)C3)ccc1-c1ccc(F)cc1` [Example 36, N-(5-carbamoyl-2-adamantyl)-5-(4-fluorophenyl)-1-methylpyrrole-2-carboxamide], for which the 50% inhibitory concentration (IC50) at Mouse 11b-HSD1 and against Human 11b-HSD1 was less than 100 nM throughout.

For the molecule `Cn1c(C(=O)N[C@H]2C3CC4CC2C[C@](C(N)=O)(C4)C3)ccc1-c1ccc(C(F)(F)F)cc1` [Example 37, N-(5-carbamoyl-2-adamantyl)-1-methyl-5-[4-(trifluoromethyl)phenyl]pyrrole-2-carboxamide], the figures for the IC50 against Mouse 11b-HSD1 and at Human 11b-HSD1 were 100 to 500 nM and less than 100 nM, respectively.

Regarding `NC(=O)[C@]12CC3CC(C1)[C@@H](NC(=O)c1ccc(-c4ccc(Cl)cc4)s1)C(C3)C2` [Example 41, N-(5-carbamoyl-2-adamantyl)-5-(4-chlorophenyl)thiophene-2-carboxamide], the IC50 at Mouse 11b-HSD1 is 100 to 500 nM; at Human 11b-HSD1, less than 100 nM.

Take `NC(=O)[C@]12CC3CC(C1)[C@@H](NC(=O)c1ccc(-c4cccc(Cl)c4)s1)C(C3)C2` [Example 42, N-(5-carbamoyl-2-adamantyl)-5-(3-chlorophenyl)thiophene-2-carboxamide]: the IC50 at Mouse 11b-HSD1 and against Human 11b-HSD1 was less than 100 nM each time.

Turning to `NC(=O)[C@]12CC3CC(C1)[C@@H](NC(=O)c1ccc(-c4ccccc4F)s1)C(C3)C2` [Example 44, N-(5-carbamoyl-2-adamantyl)-5-(2-fluorophenyl)thiophene-2-carboxamide], the IC50 at Mouse 11b-HSD1 and on Human 11b-HSD1 was less than 100 nM each time.

With `COc1cccc(C(=O)N[C@H]2C3CC4CC2C[C@](C(N)=O)(C4)C3)n1` [Example 45, N-(5-carbamoyl-2-adamantyl)-6-methoxypyridine-2-carboxamide], the figures for the half-maximal inhibitory concentration (IC50) against Mouse 11b-HSD1 and at Human 11b-HSD1 were 100 to 500 nM and less than 100 nM, respectively.

In the case of `Cc1noc(C)c1COc1cccc(C(=O)N[C@H]2C3CC4CC2C[C@](C(N)=O)(C4)C3)n1` [Example 48, N-(5-carbamoyl-2-adamantyl)-6-[(3,5-dimethyl-1,2-oxazol-4-yl)methoxy]pyridine-2-carboxamide], the half-inhibitory concentration (IC50) at Human 11b-HSD1 was less than 100 nM.
